Where “and” joins values, the source holds several entries; their conditions need not be identical. Equal values may be shown once. Where a name gives a salt, the structure may show the parent alone. Read-outs that look alike come from different tables or passages of the source.
How the values were obtained:
[1] = tested on: glycerol; assay: Glycerol-Glo assay of glycerol (byproduct of fat breakdown) in stored human milk; format: biochemical
Method: Eight human milk samples were tested to determine if glycerol, a byproduct of fat breakdown, accumulated after storage. Human milk samples were collected from the same donor anywhere between 1 month and 7 months after birth, frozen, and then thawed for testing. The samples were frozen on the same day as collection. […] The samples were thawed, and the presence of glycerol was detected by a glycerol-dependent, light-producing reaction presented as a measure of bioluminescence using the Glycerol-Glo™ Assay (Promega; catalog #: J3150) according to the manufacturer's instructions. A buffer with either 0 μM glycerol or 100 μM glycerol, alongside organic whole milk (cow) was used as a control. Glycerol content (bioluminescence) was measured using a BioTek Synergy Neo2 Hybrid Multimode Reader (Agilent; catalog #: BTNE02).

[2] = tested on: lipase; assay: Lipase/lipolysis assay (EnzChek Lipase Substrate, quenched BODIPY-fatty acid conjugate) on stored human milk; conditions: for Lipolysis: 5 ounces unpasteurized human milk, frozen −20° C. 1 week
[3] = Total Antioxidant Capacity Assay Kit on stored human milk
Method: The compounds in Table 7 were added to fresh human milk and the samples were stored for 1 week at −20° C. […] Additionally, select compounds were tested for total Antioxidant capacity using the Total Antioxidant Capacity: Total Antioxidant Capacity Assay Kit (Abcam; catalog #: ab65329) in accordance with the manufacturer's instructions and presented as a relative ratio compared to fresh human milk. […] Lipase was considered inhibited with a RFU <400, glycerol was considered inhibited with an RLU <150,000, and total antioxidant capacity considered maintained with a ratio >0.75. Results presented in Table 7 represent a dose of 500 μg/mL for vitamin C, E and the carbonate/bicarbonates. All other compounds are at 20 mg/mL. Additionally, all compounds were tested for lipase and antioxidant capacity at multiple dilutions.

[4] = Table 7, 500 μg/mL, relative ratio compared to fresh human milk, maintained if >0.75

With “Poly-D-galacturonic acid methyl ester (apple)” the “Glycerol (RLU)” value [1] was 643757 RLU and the “Lipase (RFU)” value [2] was 611.342 RFU.
For `O.O=C[C@H](O)[C@@H](O)[C@@H](O)[C@H](O)C(=O)O` [D-(+)-Galacturonic acid monohydrate], the “Glycerol (RLU)” value [1] was 71322 RLU and the “Lipase (RFU)” value [2] was 324.895 RFU.
In the case of Lambda carageenan, the “Glycerol (RLU)” value [1] is reported as 140894 RLU and the “Lipase (RFU)” value [2] is reported as 432.920 RFU.
For Perfected guar gum, the “Glycerol (RLU)” value [1] was 838585 RLU, the “Total Antioxidant Capacity” value [3] was 0.72 and the “Lipase (RFU)” value [2] was 1061.697 RFU.
In the case of Guar gum, the “Glycerol (RLU)” value [1] is reported as 744165 RLU and the “Total Antioxidant Capacity” value [3] is reported as 0.59.
With `O=C(O)[C@H]1O[C@H](O[C@@H]2[C@H](O)[C@@H](O)[C@@H](O[C@@H]3[C@H](O)[C@@H](O)C(O)O[C@@H]3C(=O)O)O[C@@H]2C(=O)O)[C@H](O)[C@@H](O)[C@H]1O` (some centres unmarked) [Trigalacturonic acid] the “Glycerol (RLU)” value [1] was 61363 RLU and the “Lipase (RFU)” value [2] was 352.972 RFU.
With Gum arabic the “Glycerol (RLU)” value [1] was 329275 RLU, the “Total Antioxidant Capacity” value [3] was 0.64 and the “Lipase (RFU)” value [2] was 744.000 RFU.
In the case of Polygalacturonic acid, the “Glycerol (RLU)” value [1] is reported as 120477 RLU and the “Lipase (RFU)” value [2] is reported as 398.125 RFU.
For tocopherol [Vitamin E], the “Total Antioxidant Capacity” value [3, 4] was 2.
For Triton X-100 [reference compound], the “Glycerol (RLU)” value [1] was 145670 RLU and the “Lipase (RFU)” value [2] was 370.282 RFU.
With “Poly-D-galacturonic acid methyl ester (citrus)” the “Glycerol (RLU)” value [1] was 122743 RLU and the “Lipase (RFU)” value [2] was 320.660 RFU.
With `O=C1O[C@H]([C@@H](O)CO)C(O)=C1O` [Vitamin C, ascorbic acid] the “Total Antioxidant Capacity” value [3, 4] was 2.
With `O=C(O)[C@H]1O[C@H](O[C@@H]2[C@H](O)[C@@H](O)[C@@H](O)O[C@@H]2C(=O)O)[C@H](O)[C@@H](O)[C@H]1O` [Digalacturonic acid] the “Glycerol (RLU)” value [1] was 61741 RLU and the “Lipase (RFU)” value [2] was 264.075 RFU.
With Pectin the “Total Antioxidant Capacity” value ([3]; Subject 1, 5 ounces unpasteurized human milk, frozen −20° C. 1 week, measure of absorbance) was 0.204, the “Total Antioxidant Capacity” value ([3]; Subject 2, 5 ounces unpasteurized human milk, frozen −20° C. 1 week, measure of absorbance) was 0.264 and the “Total Antioxidant Capacity” value ([3]; Subject 3, 5 ounces unpasteurized human milk, frozen −20° C. 1 week, measure of absorbance) was 0.364. The Lipolysis ([2]; Subject 1) was 209, the Lipolysis ([2]; Subject 2) was 525 and the Lipolysis ([2]; Subject 3) was 280.
In the case of Tween 80, the “Effect on glycerol production (in words)” value [1] is reported as “reduced lipase and glycerol production”, the “Glycerol (RLU)” value [1] is reported as 113807 RLU and the “Effect on lipase / lipolysis (in words)” value [2] is reported as “reduced lipase and glycerol production”. For the same compound, the “Hit in lipase inhibition screen (in words)” value [2] was “significantly inhibited lipase activity”.
For Locust bean gum, the “Glycerol (RLU)” value [1] was 435487 RLU, the “Total Antioxidant Capacity” value [3] was 0.55 and the “Lipase (RFU)” value [2] was 1054.203 RFU.
For `C[C@H](CCC(=O)NCCS(=O)(=O)O)[C@H]1CC[C@H]2[C@@H]3[C@H](O)C[C@@H]4C[C@H](O)CC[C@]4(C)[C@H]3C[C@H](O)[C@]12C` [Taurocholic acid (sodium salt hydrate)], the “Lipase (RFU)” value [2] was 1148.675 RFU.
For `OC[C@H]1O[C@@H](Oc2cc3c(O)cc(O)cc3[o+]c2-c2cc(O)c(O)c(O)c2)[C@H](O)[C@@H](O)[C@@H]1O.[Cl-]` [Delphinidin 3-glucoside (chloride)], the “Lipase (RFU)” value [2] was 843.0852 RFU.
With `COc1ccccc1C(=O)O` [2-Methoxybenzoic acid] the “Lipase (RFU)” value [2] was 739.8823 RFU and 1090.701 RFU.
In the case of `Nc1ncnc2c1ncn2[C@@H]1O[C@H](CSCC[C@H](N)C(=O)O)[C@@H](O)[C@H]1O` [SAH], the “Lipase (RFU)” value [2] is reported as 641.7279 RFU.
For `CC(C)=CCC/C(C)=C/CC/C(C)=C/CC[C@]1(C)CCc2cc(O)cc(C)c2O1` [δ-Tocotrienol], the “Lipase (RFU)” value [2] was 1061.05 RFU.
For O-Nornuciferine, the “Lipase (RFU)” value [2] was 773.2053 RFU.
For `NC(=O)C1=CN([C@@H]2O[C@H](COP(=O)([O-])OP(=O)([O-])OC[C@H]3O[C@@H](n4cnc5c(N)ncnc54)[C@H](O)[C@@H]3O)[C@@H](O)[C@H]2O)C=CC1.[Na+].[Na+]` [NADH (disodium salt)], the “Lipase (RFU)” value [2] was 996.9696 RFU.
For `O=C(CCc1ccc(O)cc1)c1c(O)cc(O[C@@H]2O[C@H](CO)[C@@H](O)[C@H](O)[C@H]2O)cc1O` [Trilobatin], the “Lipase (RFU)” value [2] was 813.3377 RFU and 1211.862 RFU.
For `C[N+]1(C)CCC[C@H]1C(=O)[O-]` [Stachydrine], the “Lipase (RFU)” value [2] was 1061.585 RFU.
For (+)-Secoisolariciresinol, the “Lipase (RFU)” value [2] was 1148.179 RFU.
In the case of `CCCCCCCCO` [Compound 1-Octanol], the “Lipase (RFU)” value [2] is reported as 882.5398 RFU.
With `COc1ccc(-c2cc(=O)c3c(OC)c(OC)c(OC)c(OC)c3o2)cc1O` [3′-Demethylnobiletin] the “Lipase (RFU)” value [2] was 794.5882 RFU.
With `C[C@H](CC(=O)C[C@](C)(O)[C@@H]1CC(=O)[C@@]2(C)C3=C(C(=O)C[C@]12C)[C@@]1(C)CC[C@H](O)C(C)(C)[C@@H]1C[C@@H]3O)C(=O)O` [Ganoderic acid I] the “Lipase (RFU)” value [2] was 969.9191 RFU.
For `COc1cc(CC(=O)C(=O)O)ccc1O` [Vanilpyruvic acid], the “Lipase (RFU)” value [2] was 1086.418 RFU.
In the case of `N#CCc1ccc(O)cc1` [4-Hydroxybenzyl cyanide], the “Lipase (RFU)” value [2] is reported as 1050.204 RFU.
For `COc1cc(C2Oc3ccc([C@H]4Oc5cc(O)cc(O)c5C(=O)[C@@H]4O)cc3OC2CO)ccc1O` (some centres unmarked) [Isosilybin], the “Lipase (RFU)” value [2] was 921.7702 RFU.
With `O=C(O)C[C@H](O)C(=O)O` [(S)-Malic acid] the “Lipase (RFU)” value [2] was 1015.072 RFU and 818.4693 RFU.

— patent US12507703B2, “Methods, devices and compositions for preserving human milk” (The Trustees of Princeton University, priority 2023, dated 2025)
